Laboratory results published in patent publication US20240174662A1, “SMALL MOLECULE INHIBITORS OF SALT INDUCIBLE KINASES” (Janssen Biotech, Inc., priority 2021, published 2024).

Target: SIK2 (Homo sapiens (Human), UniProt Q9H0K1)
Experiment: SIK2 Enzymatic Assay Version 2 (High ATP)
Assay type: biochemical
Settings: 3 mM ATP and 200 μM HDAC5tide final, ADP-Glo Max luminescence
Outline: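 Run at room temperature; SIK2 enzyme at 6 nM (2× final) preincubated with compound 30 min before reaction. ADP formation detected by ADP-Glo Max (2 h reagent, 1 h detection) with luminescence read-out.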

Chain of SIK2 (Q9H0K1 whole entry, species assumed): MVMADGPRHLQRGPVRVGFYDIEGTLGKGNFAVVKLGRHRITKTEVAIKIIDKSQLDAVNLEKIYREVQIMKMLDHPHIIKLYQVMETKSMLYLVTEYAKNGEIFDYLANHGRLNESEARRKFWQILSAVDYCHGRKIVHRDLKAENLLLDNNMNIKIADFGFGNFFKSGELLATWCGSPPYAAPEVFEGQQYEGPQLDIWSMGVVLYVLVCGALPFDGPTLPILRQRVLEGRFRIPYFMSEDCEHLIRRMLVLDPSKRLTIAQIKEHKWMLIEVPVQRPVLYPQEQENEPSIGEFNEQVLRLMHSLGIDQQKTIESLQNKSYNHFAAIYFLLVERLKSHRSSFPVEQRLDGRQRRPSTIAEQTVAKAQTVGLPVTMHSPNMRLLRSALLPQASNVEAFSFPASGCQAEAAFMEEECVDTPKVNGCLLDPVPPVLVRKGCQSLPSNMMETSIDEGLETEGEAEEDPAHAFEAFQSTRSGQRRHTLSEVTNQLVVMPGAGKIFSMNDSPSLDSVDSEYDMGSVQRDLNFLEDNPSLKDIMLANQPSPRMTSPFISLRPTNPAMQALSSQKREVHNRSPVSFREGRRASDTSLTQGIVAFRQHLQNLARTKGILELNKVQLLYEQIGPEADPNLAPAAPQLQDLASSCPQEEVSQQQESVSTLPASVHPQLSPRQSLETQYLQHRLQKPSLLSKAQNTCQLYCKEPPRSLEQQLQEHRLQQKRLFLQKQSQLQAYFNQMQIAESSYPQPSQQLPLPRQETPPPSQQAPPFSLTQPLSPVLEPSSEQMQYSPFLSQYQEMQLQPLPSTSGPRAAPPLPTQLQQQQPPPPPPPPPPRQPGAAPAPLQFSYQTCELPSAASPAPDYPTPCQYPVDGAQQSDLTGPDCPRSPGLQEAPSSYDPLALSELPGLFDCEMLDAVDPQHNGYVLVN

Compound | IC50
Cn1ncc(CO[C@H]2CNCC2(F)F)c1-c1ccn2nc(NC(=O)C3CC3)cc2c1 (single isomer, unassigned) [Example 465, (*S)—N-[5-[4-[(4,4-difluoropyrrolidin-3-yl)oxymethyl]-2-methyl-pyrazol-3-yl]pyrazolo[1,5-a]pyridin-2-yl]cyclopropanecarboxamide] | 74.9 nM
CN1CC[C@@H]1COc1cnn(C)c1-c1ccn2nc(NC(=O)[C@@H]3C[C@@H]3c3ccccc3)cc2c1 (single isomer, unassigned) [Example 474, (1*R,2*S)—N-(5-(1-methyl-4-(((R)-1-methylazetidin-2-yl)methoxy)-1H-pyrazol-5-yl)pyrazolo[1,5-a]pyridin-2-yl)-2-phenylcyclopropane-1-carboxamide] | 428 nM
CO[C@@H]1CNC[C@@H]1Oc1cnn(C)c1-c1ccn2nc(NC(=O)C3CC3)cc2c1 (stereo in doubt) [Example 232, (rac-cis)-N-[5-[4-(4-methoxypyrrolidin-3-yl)oxy-2-methyl-pyrazol-3-yl]pyrazolo[1,5-a]pyridin-2-yl]cyclopropanecarboxamide] | 33.2 nM
Cc1cc(Nc2cc3cc(-c4c(OC[C@@H](O)C56CC(C5)C6)cnn4C)ccn3n2)nc(C)n1 (stereo in doubt) [Example 306, (*S)-1-(3-bicyclo[1.1.1]pentanyl)-2-[5-[2-[(2,6-dimethylpyrimidin-4-yl)amino]pyrazolo[1,5-a]pyridin-5-yl]-1-methyl-pyrazol-4-yl]oxy-ethanol] | 36.1 nM
Cc1cnc(Nc2cc3cc(-c4c(CO[C@H]5CN(C)C[C@@H]5C)cnn4C)ccn3n2)cn1 (stereo in doubt) [Example 372, Trans-*S, *R-5-[4-[(1,4-dimethylpyrrolidin-3-yl)oxymethyl]-2-methyl-pyrazol-3-yl]-N-(5-methylpyrazin-2-yl)pyrazolo[1,5-a]pyridin-2-amine] | 24.4 nM
Cc1cncc(Nc2cc3cc(-c4c(CO[C@H]5CN(C)C[C@@H]5C)cnn4C)ccn3n2)n1 (stereo in doubt) [Example 374, Trans-*S, *R-5-[4-[(1,4-dimethylpyrrolidin-3-yl)oxymethyl]-2-methyl-pyrazol-3-yl]-N-(6-methylpyrazin-2-yl)pyrazolo[1,5-a]pyridin-2-amine] | 17.3 nM
Cc1cnc(Nc2cc3cc(-c4c(CO[C@@H]5CN(C)C[C@H]5C)cnn4C)ccn3n2)cn1 (stereo in doubt) [Example 377, CIS—*R, *R-5-[4-[(1,4-dimethylpyrrolidin-3-yl)oxymethyl]-2-methyl-pyrazol-3-yl]-N-(5-methylpyrazin-2-yl)pyrazolo[1,5-a]pyridin-2-amine] | 14.8 nM
Cc1cnc(Nc2cc3cc(-c4c(CO[C@H]5CN(C)C[C@@H]5C)cnn4C)ccn3n2)cn1 (stereo in doubt) [Example 469, (rac-trans)-5-[4-[(1,4-dimethylpyrrolidin-3-yl)oxymethyl]-2-methyl-pyrazol-3-yl]-N-(5-methylpyrazin-2-yl)pyrazolo[1,5-a]pyridin-2-amine] | 27.3 nM
Cn1ncc(OC[C@H]2CNCCO2)c1-c1ccn2nc(NC(=O)C3CC3)cc2c1 [Example 6, N-[5-[2-methyl-4-[[(2R)-morpholin-2-yl]methoxy]pyrazol-3-yl]pyrazolo[1,5-a]pyridin-2-yl]cyclopropanecarboxamide] | 14 nM
CN1CC[C@H](Oc2cnn(C)c2-c2ccn3nc(Nc4cncc(C(F)(F)F)n4)cc3c2)C1 [Example 7, 5-[2-methyl-4-[(3S)-1-methylpyrrolidin-3-yl]oxy-pyrazol-3-yl]-N-[6-(trifluoromethyl)pyrazin-2-yl]pyrazolo[1,5-a]pyridin-2-amine] | 78.7 nM
CN1CC(COc2cnn(C)c2-c2ccn3nc(NC(=O)C4CC4)cc3c2)C1 [Example 8, N-[5-[2-methyl-4-[(1-methylazetidin-3-yl)methoxy]pyrazol-3-yl]pyrazolo[1,5-a]pyridin-2-yl]cyclopropanecarboxamide] | 18.9 nM

These reach a lower IC50. Values come first.

IC50 | Compound
10.9 nM | CO[C@H]1CNC[C@H]1Oc1cnn(C)c1-c1ccn2nc(NC(=O)C3CC3)cc2c1 (stereo in doubt) [Example 5, N-(5-(4-(((3*R,4*S)-4-methoxypyrrolidin-3-yl)oxy)-1-methyl-1H-pyrazol-5-yl)pyrazolo[1,5-a]pyridin-2-yl)cyclopropanecarboxamide]
3.3 nM | Cc1cc(Nc2cc3cc(-c4c(CO[C@H]5CN(C)C[C@H]5C)cnn4C)ccn3n2)nc(C)n1 (stereo in doubt) [Example 368, CIS—*R, *R—N-(2,6-dimethylpyrimidin-4-yl)-5-[4-[(1,4-dimethylpyrrolidin-3-yl)oxymethyl]-2-methyl-pyrazol-3-yl]pyrazolo[1,5-a]pyridin-2-amine]
2 nM | Cc1cc(Nc2cc3cc(-c4c(CO[C@@H]5CN(C)C[C@@H]5C)cnn4C)ccn3n2)nc(C)n1 (stereo in doubt) [Example 369, CIS—*S, *S—N-(2,6-dimethylpyrimidin-4-yl)-5-[4-[(1,4-dimethylpyrrolidin-3-yl)oxymethyl]-2-methyl-pyrazol-3-yl]pyrazolo[1,5-a]pyridin-2-amine]
2.9 nM | Cc1cncc(Nc2cc3cc(-c4c(CO[C@H]5CN(C)C[C@H]5C)cnn4C)ccn3n2)n1 (stereo in doubt) [Example 370, CIS-Rac-5-[4-[(1,4-dimethylpyrrolidin-3-yl)oxymethyl]-2-methyl-pyrazol-3-yl]-N-(6-methylpyrazin-2-yl)pyrazolo[1,5-a]pyridin-2-amine]
3.1 nM | Cc1cncc(Nc2cc3cc(-c4c(CO[C@@H]5CN(C)C[C@H]5C)cnn4C)ccn3n2)n1 (stereo in doubt) [Example 375, Trans-*R, *S-5-[4-[(1,4-dimethylpyrrolidin-3-yl)oxymethyl]-2-methyl-pyrazol-3-yl]-N-(6-methylpyrazin-2-yl)pyrazolo[1,5-a]pyridin-2-amine]
12.2 nM | Cc1cncc(Nc2cc3cc(-c4c(CO[C@H]5CN(C)C[C@H]5C)cnn4C)ccn3n2)n1 (stereo in doubt) [Example 378, CIS—*R, *R-5-[4-[(1,4-dimethylpyrrolidin-3-yl)oxymethyl]-2-methyl-pyrazol-3-yl]-N-(6-methylpyrazin-2-yl)pyrazolo[1,5-a]pyridin-2-amine]
2.2 nM | Cc1cncc(Nc2cc3cc(-c4c(CO[C@@H]5CN(C)C[C@@H]5C)cnn4C)ccn3n2)n1 (stereo in doubt) [Example 379, CIS—*S, *S-5-[4-[(1,4-dimethylpyrrolidin-3-yl)oxymethyl]-2-methyl-pyrazol-3-yl]-N-(6-methylpyrazin-2-yl)pyrazolo[1,5-a]pyridin-2-amine]
< 0.847 nM | Cc1cc(Nc2cc3cc(-c4c(OC[C@H]5CCN5C)cnn4C)ccn3n2)nc(C)n1 [Example 2, N-(2,6-dimethylpyrimidin-4-yl)-5-[2-methyl-4-[[(2R)-1-methylazetidin-2-yl]methoxy]pyrazol-3-yl]pyrazolo[1,5-a]pyridin-2-amine]
8.5 nM | CN1CC(C)(C)[C@H]1COc1cnn(C)c1-c1ccn2nc(NC(=O)C3CC3)cc2c1 [Example 3, N-[5-[2-methyl-4-[[(2S)-1,3,3-trimethylazetidin-2-yl]methoxy]pyrazol-3-yl]pyrazolo[1,5-a]pyridin-2-yl]cyclopropanecarboxamide]
7.6 nM | Cn1ncc(OC[C@H]2NCC2(C)C)c1-c1ccn2nc(NC(=O)C3CC3)cc2c1 [Example 4, N-[5-[4-[[(2S)-3,3-dimethylazetidin-2-yl]methoxy]-2-methyl-pyrazol-3-yl]pyrazolo[1,5-a]pyridin-2-yl]cyclopropanecarboxamide]
